Read-outs that look alike come from different tables or passages of the source.
Key:
human PDE-5A1 = human PDE-5A1 (Homo sapiens (Human), UniProt O76074); experiment: Human PDE-5A1 inhibition assay (fluorescence polarization, FAM-cGMP); assay type: biochemical; conditions: human PDE5A1, 100 nM FAM-cGMP, 60 minutes room temperature
Excerpt: This example illustrates the in vitro inhibition of human PDE-5A1 by exemplary compounds of this disclosure (e.g., as described herein).
Sildenafil citrate (Catalog no. LKT-S3313, Axxora, San Diego, CA), Vardenafil hydrochloride trihydrate (Catalog no. SML2103, Sigma-Aldrich, St. Louis, MO), PDE Assay Buffer (Catalog no. 60393, BPS bioscience, San Diego, CA), PDE Binding Agent (Catalog no. 60390, BPS bioscience, San Diego, CA) and PDE Binding Agent Diluent (cGMP, Catalog no. 60392, BPS bioscience, San Diego, CA) were used for assays. Test compounds were supplied by Ildong Pharmaceuticals Co., Ltd.
The serial dilution of the compounds was first performed in 100% DMSO with the highest concentration at 1 mM and 0.1 mM. Each intermediate compound dilution (in 100% DMSO) will then get directly diluted 10× fold into assay buffer for 10% DMSO and 5 μL of the dilution was added to a 50 μL reaction so that the final concentration of DMSO is 1% in all reactions.
The enzymatic reactions were conducted at room temperature for 60 minutes in a 50 μL mixture containing PDE assay buffer, 100 nM FAM-cGMP, a PDE enzyme (Table 2) and the test compounds.
After enzymatic reaction, 100 μL of a binding solution (1:100 dilution of the binding agent with the binding agent diluent) was added to each reaction and the reaction was performed at room temperature for 60 minutes.
Fluorescence intensity was measured at excitation of 485 nm and an emission of 528 nm using a Tecan Infinite M1000 microplate reader.
PDE activity assays were performed in duplicate at each concentration. Fluorescence intensity is converted to fluorescence polarization using the Tecan Magellan6 software. The fluorescence polarization (FPt) in absence of the compound in each data set was defined as 100% activity. In the absence of PDE and the compound, the value fluorescent polarization (FPb) in each data set was defined as 0% activity. The percent activity in the presence of compound was calculated according to Equation 1:
[formula] where FP=the fluorescence polarization in the presence of the compound.
The values of % activity versus a series of compound concentrations were then plotted using non-linear regression analysis of Sigmoidal dose-response curve generated with Equation 2:
[formula] where Y=percent activity, B=minimum percent activity, T=maximum percent activity, X=logarithm of compound, and Hill Slope=slope factor or Hill coefficient. The IC50 value was determined by the concentration causing a half-maximal percent activity. Results

androgen receptor (AR) = androgen receptor (AR) (Homo sapiens (Human), UniProt P10275); experiment: Androgen receptor (AR) reporter assay, antagonist screen activated by R1881; assay type: cell-based; conditions: AR-UAS-bla GripTite 293 cells, antagonist mode, R1881 at EC80
Sequence of androgen receptor (AR) (P10275 other isoform, or with tags, fused parts or gaps): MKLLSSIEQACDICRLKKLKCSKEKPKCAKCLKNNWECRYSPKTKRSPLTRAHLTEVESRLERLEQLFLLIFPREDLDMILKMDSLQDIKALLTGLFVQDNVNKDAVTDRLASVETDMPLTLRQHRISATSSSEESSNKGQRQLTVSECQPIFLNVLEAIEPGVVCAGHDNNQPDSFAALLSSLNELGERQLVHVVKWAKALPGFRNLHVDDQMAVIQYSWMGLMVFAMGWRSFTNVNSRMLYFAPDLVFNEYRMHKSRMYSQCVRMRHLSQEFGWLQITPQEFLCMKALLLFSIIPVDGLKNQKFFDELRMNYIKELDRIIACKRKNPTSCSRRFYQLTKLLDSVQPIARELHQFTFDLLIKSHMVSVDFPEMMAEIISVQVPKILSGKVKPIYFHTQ
Method: The protocols and results of this Example were carried out and obtained by Thermofisher Scientific.
Test compounds were received at 1000× (or greater) of the desired starting concentration in 100% DMSO. If compounds were supplied at greater that 1000× concentration, an initial dilution is made in 100% DMSO to bring the compounds to 1000× concentration. The 1000× test compounds were serially diluted (10 point ½-log increments) in 100% DMSO.
The Substrate Loading Solution consists of three Life Technologies reagents: Solution A (10 mM LiveBLAzer™-FRET B/G Substrate), Solution B and Solution C.
Androgen Receptor (AR)—Antagonist Screen, Activated by R1881
AR-UAS-bla GripTite™ 293 cells were thawed and resuspended in Assay Media (DMEM phenol red free, 2% CD-treated FBS, 0.1 mM NEAA, 1 mM Sodium Pyruvate, 100 U/mL/100 μg/mL Pen/Strep) to a concentration of 312,500 cells/mL. 4 μL of a 10× serial dilution of Cyproterone Acetate (control antagonist starting concentration, 3,160 nM) or compounds are added to appropriate wells of a Poly-D-Lysine assay plate. 32 μL of cell suspension was added to the wells and pre-incubated at 37° C./5% CO2 in a humidified incubator with compounds and control antagonist titration for 30 minutes. 4 μL of 10× control agonist R1881 at the pre-determined EC80 concentration was added to wells containing the control antagonist or compounds. The plate was incubated for 16-24 hours at 37° C./5% CO2 in a humidified incubator. 8 μL of 1 μM Substrate Loading Solution is added to each well and the plate was incubated for 2 hours at room temperature. The plate was read on a fluorescence plate reader (Tecan Safire^2).

Human androgen receptors = Human androgen receptors (Homo sapiens (Human), UniProt P10275, T878A); experiment: Androgen receptor (AR) radioligand binding assay; conditions: read-out: AR IC50
Sequence of Human androgen receptors (P10275 whole entry T878A): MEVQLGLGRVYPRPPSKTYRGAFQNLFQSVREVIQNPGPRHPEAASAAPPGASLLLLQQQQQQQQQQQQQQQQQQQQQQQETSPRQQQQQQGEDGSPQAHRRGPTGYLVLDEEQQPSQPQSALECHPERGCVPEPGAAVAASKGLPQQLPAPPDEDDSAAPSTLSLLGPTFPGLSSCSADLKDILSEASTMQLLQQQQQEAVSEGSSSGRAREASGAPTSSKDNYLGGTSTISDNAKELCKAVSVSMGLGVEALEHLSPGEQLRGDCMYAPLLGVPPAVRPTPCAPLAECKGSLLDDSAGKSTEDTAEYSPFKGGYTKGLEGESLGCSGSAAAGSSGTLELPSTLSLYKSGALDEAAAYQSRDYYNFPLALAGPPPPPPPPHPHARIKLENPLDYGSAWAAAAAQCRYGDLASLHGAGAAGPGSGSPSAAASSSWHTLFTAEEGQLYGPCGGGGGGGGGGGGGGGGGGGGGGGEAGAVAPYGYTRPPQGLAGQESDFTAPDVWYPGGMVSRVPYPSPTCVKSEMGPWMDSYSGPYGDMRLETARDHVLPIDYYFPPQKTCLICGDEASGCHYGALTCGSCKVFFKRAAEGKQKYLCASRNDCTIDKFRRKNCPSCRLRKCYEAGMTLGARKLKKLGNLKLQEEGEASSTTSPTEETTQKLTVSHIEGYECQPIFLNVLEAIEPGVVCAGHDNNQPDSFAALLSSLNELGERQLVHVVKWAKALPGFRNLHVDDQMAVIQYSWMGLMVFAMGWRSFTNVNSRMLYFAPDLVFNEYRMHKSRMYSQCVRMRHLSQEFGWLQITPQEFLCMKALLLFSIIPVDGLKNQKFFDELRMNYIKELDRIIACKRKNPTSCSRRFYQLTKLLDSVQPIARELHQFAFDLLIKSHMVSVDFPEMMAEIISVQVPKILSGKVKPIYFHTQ
Method: Methods employed in this study have been adapted from the following literature procedure.
Human androgen receptors obtained from human LNCaP cells are used in modified HEPES buffer pH 7.4. […] Non-specific binding is estimated in the presence of 1 μM testosterone. […] (See, e.g., Traish, A. M et al., Binding of 7α, 17α-dimethyl-19-nortestosterone (Mibolerone) to androgen and progesterone receptors in human and animal tissues. Endocrinology. 118(4): 1327-1333, 1986).
Compounds are screened at 10 μM.
Where presented, IC50 values were determined by a non-linear, least squares regression analysis using MathIQ™ (ID Business Solutions Ltd., UK).

Row | SMILES | IC50 (human PDE-5A1) [nM] | also measured
1 | CCCc1nn(C)c2c(=O)[nH]c(-c3cc(S(=O)(=O)Nc4ccc(C#N)c(C(F)(F)F)c4)ccc3OCC)nc12 [Compound 1, N-(4-cyano-3-(trifluoromethyl)phenyl)-4-ethoxy-3-(1-methyl-7-oxo-3-propyl-6,7-dihydro-1H-pyrazolo[4,3-d]pyrimidin-5-yl)benzenesulfonamide] | ≤ 10 | –
2 | CCCc1nn(C)c2c(=O)[nH]c(-c3cc(SC[C@](C)(O)C(=O)Nc4ccc(C#N)c(C(F)(F)F)c4)ccc3OCC)nc12 [Compound 2, (R)-N-(4-cyano-3-(trifluoromethyl)phenyl)-3-((4-ethoxy-3-(1-methyl-7-oxo-3-propyl-6,7-dihydro-1H-pyrazolo[4,3-d]pyrimidin-5-yl)phenyl)thio)-2-hydroxy-2-methylpropanamide] | 10 to 100 | –
3 | CCCc1nn(C)c2c(=O)[nH]c(-c3cc(S(=O)(=O)C[C@](C)(O)C(=O)Nc4ccc(C#N)c(C(F)(F)F)c4)ccc3OCC)nc12 [Compound 3, (R)-N-(4-cyano-3-(trifluoromethyl)phenyl)-3-((4-ethoxy-3-(1-methyl-7-oxo-3-propyl-6,7-dihydro-1H-pyrazolo[4,3-d]pyrimidin-5-yl)phenyl)sulfonyl)-2-hydroxy-2-methylpropanamide] | 10 to 100 | –
4 | CCCc1nn(C)c2c(=O)[nH]c(-c3cc(S(=O)(=O)NC[C@@](C)(O)C(=O)Nc4ccc(C#N)c(C(F)(F)F)c4)ccc3OCC)nc12 [Compound 4, (R)-N-(4-cyano-3-(trifluoromethyl)phenyl)-3-((4-ethoxy-3-(1-methyl-7-oxo-3-propyl-6,7-dihydro-1H-pyrazolo[4,3-d]pyrimidin-5-yl)phenyl)sulfonamido)-2-hydroxy-2-methylpropanamide] | 10 to 100 | –
5 | CCCc1nn(C)c2c(=O)[nH]c(-c3cc(S(=O)(=O)Nc4cnc(C#N)c(C(F)(F)F)c4)ccc3OCC)nc12 [Compound 5, N-(6-cyano-5-(trifluoromethyl)pyridin-3-yl)-4-ethoxy-3-(1-methyl-7-oxo-3-propyl-6,7-dihydro-1H-pyrazolo[4,3-d]pyrimidin-5-yl)benzenesulfonamide] | ≤ 10 | –
6 | CCCc1nc(C)c2c(=O)[nH]c(-c3cc(S(=O)(=O)Nc4cnc(C#N)c(C(F)(F)F)c4)ccc3OCC)nn12 [Compound 6, N-(6-cyano-5-(trifluoromethyl)pyridin-3-yl)-4-ethoxy-3-(5-methyl-4-oxo-7-propyl-3,4-dihydroimidazo[5,1-f][1,2,4]triazin-2-yl)benzenesulfonamide] | ≤ 10 | –
7 | CCCc1nc(C)c2c(=O)[nH]c(-c3cc(S(=O)(=O)Nc4ccc(C#N)c(C(F)(F)F)c4)ccc3OCC)nn12 [Compound 7, N-(4-cyano-3-(trifluoromethyl)phenyl)-4-ethoxy-3-(5-methyl-4-oxo-7-propyl-3,4-dihydroimidazo[5,1-f][1,2,4]triazin-2-yl)benzenesulfonamide] | ≤ 10 | –
8 | CCCc1nn(C)c2c(=O)[nH]c(-c3cc(S(=O)(=O)Nc4ccc(C#N)c(Cl)c4)ccc3OCC)nc12 [Compound 8, N-(3-chloro-4-cyanophenyl)-4-ethoxy-3-(1-methyl-7-oxo-3-propyl-6,7-dihydro-1H-pyrazolo[4,3-d]pyrimidin-5-yl)benzenesulfonamide] | ≤ 10 | –
9 | CCCc1nc(C)c2c(=O)[nH]c(-c3cc(S(=O)(=O)Nc4ccc(C#N)c(Cl)c4)ccc3OCC)nn12 [Compound 9, N-(3-chloro-4-cyanophenyl)-4-ethoxy-3-(5-methyl-4-oxo-7-propyl-3,4-dihydroimidazo[5,1-f][1,2,4]triazin-2-yl)benzenesulfonamide] | ≤ 10 | –
10 | CCCc1nc(C)c2c(=O)[nH]c(-c3cc(S(=O)(=O)N[C@H]4C[C@H](C(O)C(F)(F)F)N(c5ccc(C#N)c(C(F)(F)F)c5)C4)ccc3OCC)nn12 (stereo partly drawn) [Compound 10, N-((3S,5R)-1-(4-cyano-3-(trifluoromethyl)phenyl)-5-(2,2,2-trifluoro-1-hydroxyethyl)pyrrolidin-3-yl)-4-ethoxy-3-(5-methyl-4-oxo-7-propyl-3,4-dihydroimidazo[5,1-f][1,2,4]triazin-2-yl)benzenesulfonamide] | ≤ 10 | –
11 | CCCc1nn(C)c2c(=O)[nH]c(-c3cc(S(=O)(=O)N[C@@H](C)Cn4ccc(-c5ccc(C#N)c(Cl)c5)n4)ccc3OCC)nc12 [Compound 11, (S)-N-(1-(3-(3-chloro-4-cyanophenyl)-1H-pyrazol-1-yl)propan-2-yl)-4-ethoxy-3-(1-methyl-7-oxo-3-propyl-6,7-dihydro-1H-pyrazolo[4,3-d]pyrimidin-5-yl)benzenesulfonamide] | > 100 | –
12 | CCCc1nn(C)c2c(=O)[nH]c(-c3cc(N4C(=S)N(c5ccc(C#N)c(C(F)(F)F)c5)C(=O)C4(C)C)ccc3OCC)nc12 [Compound 13, 4-(3-(4-ethoxy-3-(1-methyl-7-oxo-3-propyl-6,7-dihydro-1H-pyrazolo[4,3-d]pyrimidin-5-yl)phenyl)-4,4-dimethyl-5-oxo-2-thioxoimidazolidin-1-yl)-2-(Influoromethyl)benzonilrile] | > 100 | IC50 (androgen receptor (AR)): 500 to 1000 nM; IC50 (Human androgen receptors; receptors from human LNCaP cells, 0.5 nM [3H]Methyltrienolone, 20 hours at 4° C.): > 200 nM
13 | CCCc1nc(C)c2c(=O)[nH]c(-c3cc(N4C(=S)N(c5cnc(C#N)c(C(F)(F)F)c5)C(=O)C45CCC5)ccc3OCC)nn12 [Compound 24, 5-(5-(4-ethoxy-3-(5-methyl-4-oxo-7-propyl-3,4-dihydroimidazo[5,1-f][1,2,4]triazin-2-yl)phenyl)-8-oxo-6-thioxo-5,7-diazaspiro[3.4]octan-7-yl)-3-(trifluoromethyl)picolinonitrile] | ≤ 10 | IC50 (Human androgen receptors): 50 to 200 nM
14 | CCCc1nc(C)c2c(=O)[nH]c(-c3cc(N4CC(=O)N(c5ccc(C#N)c(C(F)(F)F)c5)C4=S)ccc3OCC)nn12 [Compound 25, 4-(3-(4-ethoxy-3-(5-methyl-4-oxo-7-propyl-3,4-dihydroimidazo[5,1-f][1,2,4]triazin-2-yl)phenyl)-5-oxo-2-thioxoimidazolidin-1-yl)-2-(trifluoromethyl)benzonitrile] | ≤ 10 | IC50 (androgen receptor (AR)): > 100 nM
15 | CCCc1nc(C)c2c(=O)[nH]c(-c3cc(NC(=O)Nc4ccc(C#N)c(C(F)(F)F)c4)ccc3OCC)nn12 [Compound 27, 1-(4-cyano-3-(trifluoromethyl)phenyl)-3-(4-ethoxy-3-(5-methyl-4-oxo-7-propyl-3,4-dihydroimidazo[5,1-f][1,2,4]triazin-2-yl)phenyl)urea] | ≤ 10 | IC50 (androgen receptor (AR)): > 100 nM
16 | CCCc1nc(C)c2c(=O)[nH]c(-c3cc(NC(=S)Nc4ccc(C#N)c(C(F)(F)F)c4)ccc3OCC)nn12 [Compound 28, 1-(4-cyano-3-(trifluoromethyl)phenyl)-3-(4-ethoxy-3-(5-methyl-4-oxo-7-propyl-3,4-dihydroimidazo [5,1-f][1,2,4]triazin-2-yl)phenyl)thiourea] | ≤ 10 | IC50 (androgen receptor (AR)): > 100 nM
